Reference: PubChem BioAssay AID256 (DTP/NCI, 2004)
Several values for one entry are separate records, joined by “and”; a condition that tells them apart may be missing. Equal entries are not always repeated. Toxic doses and inconclusive results are not listed.

System: CD2F1 mice, L1210 leukemia ip, survival T/C
Test: NCI In Vivo Anticancer Drug Screen. Data for tumor model L1210 Leukemia (intraperitoneal) in CD2F1 (CDF1) mice
Details: endpoint: mean survival time, higher = longer survival
Outline: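 Implant tumor; dose compound or vehicle; measure endpoint in both groups; report treated divided by control.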

[1] = dose: 200.0 mg/kg/injection, schedule: Q01DX009 (ip), vehicle: saline
[2] = dose: 100.0 mg/kg/injection, schedule: Q01DX009 (ip), vehicle: saline with Tween-80
[3] = dose: 100.0 mg/kg/injection, schedule: Q04DX003 (ip), vehicle: saline with Tween-80
[4] = dose: 200.0 mg/kg/injection, schedule: Q01DX009 (ip), vehicle: saline with Tween-80
[5] = dose: 200.0 mg/kg/injection, schedule: Q04DX003 (ip), vehicle: saline with Tween-80
[6] = dose: 400.0 mg/kg/injection, schedule: Q01DX009 (ip), vehicle: saline with Tween-80
[7] = dose: 400.0 mg/kg/injection, schedule: Q04DX003 (ip), vehicle: saline with Tween-80

Nc1ccn([C@H]2C[C@@H](CO)[C@H](O)[C@@H]2O)c(=O)n1
T/C (dose: 22.0 mg/kg/injection, schedule: Q03HX024 (ip), vehicle: saline): 159 % of control | T/C (dose: 33.0 mg/kg/injection, schedule: Q03HX024 (ip), vehicle: saline): 164 % of control | T/C (dose: 50.0 mg/kg/injection, schedule: Q03HX024 (ip), vehicle: saline): 169 % of control | T/C (dose: 75.0 mg/kg/injection, schedule: Q04HX024 (ip), vehicle: saline): 176 % of control | T/C (dose: 100.0 mg/kg/injection, schedule: Q04HX024 (ip), vehicle: saline): 177 % of control | T/C (dose: 150.0 mg/kg/injection, schedule: Q01DX009 (ip), vehicle: saline): 150 % of control | T/C [1]: 182 % of control | T/C (dose: 450.0 mg/kg/injection, schedule: Q01DX009 (ip), vehicle: saline): 166 % of control

CN(C)C1C(CO)C(CO)C1(C)C (stereo not drawn)
T/C (dose: 50.0 mg/kg/injection, schedule: Q01DX001 (ip), vehicle: saline with Tween-80): 98 % of control | T/C (dose: 100.0 mg/kg/injection, schedule: Q01DX001 (ip), vehicle: saline with Tween-80): 97 % of control | T/C (dose: 200.0 mg/kg/injection, schedule: Q01DX001 (ip), vehicle: saline with Tween-80): 98 % of control | T/C (dose: 400.0 mg/kg/injection, schedule: Q01DX001 (ip), vehicle: saline with Tween-80): 97 % of control

OCc1c(Cl)c(Cl)c(CO)c(Cl)c1Cl
T/C [2]: 95 % of control | T/C [3]: 102 % of control | T/C [4]: 90 % of control | T/C [5]: 100 % of control | T/C [6]: 94 % of control | T/C [7]: 96 % of control

CCOCC(=O)CC(C)C
T/C (dose: 100.0 mg/kg/injection, schedule: Q04DX003 (ip), vehicle: other): 100 % of control | T/C (dose: 200.0 mg/kg/injection, schedule: Q04DX003 (ip), vehicle: other): 91 % of control | T/C (dose: 400.0 mg/kg/injection, schedule: Q04DX003 (ip), vehicle: other): 100 % of control

CCOC(=O)C1=C(C)NC(C)=C(C(=O)OCC)C1c1ccc(Cl)cc1
T/C [2]: 96 % of control | T/C [4]: 100 % of control | T/C [6]: 96 % of control

ClC(Cl)c1c2c(cc3c1CCCC3)CCCC2
T/C [2]: 113 % of control | T/C [4]: 116 % of control | T/C [6]: 102 % of control

CC(=O)NCCCCCCNC(C)=O
T/C (dose: 25.0 mg/kg/injection, schedule: Q01DX009 (ip), vehicle: saline): 96 % of control | T/C (dose: 50.0 mg/kg/injection, schedule: Q01DX009 (ip), vehicle: saline): 100 % of control | T/C (dose: 100.0 mg/kg/injection, schedule: Q01DX009 (ip), vehicle: saline): 100 % of control | T/C [1]: 94 % of control | T/C (dose: 400.0 mg/kg/injection, schedule: Q01DX009 (ip), vehicle: saline): 100 % of control | T/C (dose: 800.0 mg/kg/injection, schedule: Q01DX009 (ip), vehicle: saline): 93 % of control

Nc1nc[nH]c(=O)c1NC(=O)c1cccc([N+](=O)[O-])c1
T/C (dose: 50.0 mg/kg/injection, schedule: Q04DX003 (ip), vehicle: saline with Tween-80): 101 % of control and 111 % of control | T/C (dose: 100.0 mg/kg/injection, schedule: Q04DX002 (ip), vehicle: saline with Tween-80): 96 % of control and 109 % of control | T/C (dose: 200.0 mg/kg/injection, schedule: Q04DX002 (ip), vehicle: saline with Tween-80): 92 % of control and 104 % of control | T/C (dose: 400.0 mg/kg/injection, schedule: Q04DX002 (ip), vehicle: saline with Tween-80): 114 % of control and 96 % of control

Cc1cn(C2CC(O)C(CN=[N+]=[N-])O2)c(=O)[nH]c1=O (stereo not drawn)
T/C (dose: 12.5 mg/kg/injection, schedule: Q01DX005 (ip), vehicle: other): 93 % of control | T/C (dose: 25.0 mg/kg/injection, schedule: Q01DX005 (ip), vehicle: other): 96 % of control | T/C (dose: 50.0 mg/kg/injection, schedule: Q01DX005 (ip), vehicle: other): 95 % of control | T/C (dose: 100.0 mg/kg/injection, schedule: Q01DX005 (ip), vehicle: other): 93 % of control | T/C (dose: 200.0 mg/kg/injection, schedule: Q01DX005 (ip), vehicle: other): 93 % of control

CN1CN(C)C(=O)S(=O)(=O)C1
T/C [2]: 105 % of control | T/C [3]: 92 % of control | T/C [4]: 103 % of control | T/C [5]: 93 % of control | T/C [6]: 107 % of control | T/C [7]: 98 % of control
